From PubChem BioAssay AID2060898 (Molecular Pharmacology Branch, DTP, NCI, 2025)

Test system: 616215-338-R-J1-PDC complex spheroid viability
Test: Anticancer human tumor 616215-338-R-J1-PDC patient-derived colon adenocarcinoma cell line growth inhibition [RAS]
Settings: for IC50: curve of first compound; for viability, T/C: stronger effect = lower value
Procedure, shortened: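 Multi-cell-type spheroids: tumor cells plus HUVEC endothelial cells and mesenchymal stem cells. RAS-pathway inhibitors were combined with targeted agents, each dosed in half-log steps down from clinical Cmax, or from 10 microM when Cmax was unknown.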

[1] = second compound 0.00316 µM, first compound 0.0316 µM
[2] = second compound 0.00316 µM, first compound 0.1 µM
[3] = second compound 0.00316 µM, first compound 0.316 µM
[4] = second compound 0.00316 µM, first compound 1 µM
[5] = second compound 0.01 µM, first compound 0.0316 µM
[6] = second compound 0.01 µM, first compound 0.1 µM
[7] = second compound 0.01 µM, first compound 0.316 µM
[8] = second compound 0.01 µM, first compound 1 µM
[9] = second compound 0.0316 µM, first compound 0.0316 µM
[10] = second compound 0.0316 µM, first compound 0.1 µM
[11] = second compound 0.0316 µM, first compound 0.316 µM
[12] = second compound 0.0316 µM, first compound 1 µM
[13] = second compound 0.1 µM, first compound 0.0316 µM
[14] = second compound 0.1 µM, first compound 0.1 µM
[15] = second compound 0.1 µM, first compound 0.316 µM
[16] = second compound 0.1 µM, first compound 1 µM
[17] = second compound 0.316 µM, first compound 0.0316 µM
[18] = second compound 0.316 µM, first compound 0.1 µM
[19] = second compound 0.316 µM, first compound 0.316 µM
[20] = second compound 0.316 µM, first compound 1 µM
[21] = second compound 1 µM, first compound 0.0316 µM
[22] = second compound 1 µM, first compound 0.1 µM
[23] = second compound 1 µM, first compound 0.316 µM
[24] = second compound 1 µM, first compound 1 µM
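Also: spheroids exposed to agents for seven days before viability readout.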
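For viability, T/C in this document: 100% = DMSO vehicle control viability.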

Molecule NC1c2ccccc2OC12CCN(c1cnc3c(N4CCCc5ncccc54)n[nH]c3n1)CC2 (centres undefined) + C=CC(=O)N1CCN(c2nc(OCC3CCCN3C)nc3c(F)c(-c4nc(N)cc(C)c4C(F)(F)F)c(Cl)cc23)C(C)C1 has an IC50 (second compound 0.00316 µM) greater than 10000 nM, an IC50 (second compound 0.01 µM) greater than 10000 nM and an IC50 (second compound 0.0316 µM) greater than 10000 nM. The IC50 (second compound 0.1 µM) was greater than 10000 nM, the IC50 (second compound 0.316 µM) was greater than 10000 nM and the IC50 (second compound 1 µM) was greater than 10000 nM. The viability, T/C [1] was 119%, the viability, T/C [2] was 114% and the viability, T/C [3] was 81.2%. For the same molecule, the viability, T/C [4] was 79.1%, the viability, T/C (second compound 0.00316 µM, first compound 3.16 µM) was 58.7% and the viability, T/C (second compound 0.00316 µM, first compound 10 µM) was 53.5%. It also gave a viability, T/C [5] of 134%, a viability, T/C [6] of 104% and a viability, T/C [7] of 95.4%. The viability, T/C [8] was 80.5%, the viability, T/C (second compound 0.01 µM, first compound 3.16 µM) was 83% and the viability, T/C (second compound 0.01 µM, first compound 10 µM) was 64.2%. The viability, T/C [9] was 121%, the viability, T/C [10] was 113% and the viability, T/C [11] was 95.7%. For the same molecule, the viability, T/C [12] was 74.9%, the viability, T/C (second compound 0.0316 µM, first compound 3.16 µM) was 77.4% and the viability, T/C (second compound 0.0316 µM, first compound 10 µM) was 60.6%. For the same molecule, the viability, T/C [13] was 112%, the viability, T/C [14] was 110% and the viability, T/C [15] was 81.3%. The viability, T/C [16] was 93.4%, the viability, T/C (second compound 0.1 µM, first compound 3.16 µM) was 64.7% and the viability, T/C (second compound 0.1 µM, first compound 10 µM) was 62.1%. The viability, T/C [17] was 120%, the viability, T/C [18] was 112% and the viability, T/C [19] was 91.4%. It also gave a viability, T/C [20] of 74.3%, a viability, T/C (second compound 0.316 µM, first compound 3.16 µM) of 70.9% and a viability, T/C (second compound 0.316 µM, first compound 10 µM) of 52.3%. For the same molecule, the viability, T/C [21] was 116%, the viability, T/C [22] was 101% and the viability, T/C [23] was 91.8%. For the same molecule, the viability, T/C [24] was 83.6%, the viability, T/C (second compound 1 µM, first compound 3.16 µM) was 73% and the viability, T/C (second compound 1 µM, first compound 10 µM) was 62.3%.
With Nc1ccn(C2OC(CO)C(O)C2(F)F)c(=O)n1 (centres undefined) + C=CC(=O)N1CCN(c2nc(OCC3CCCN3C)nc3c(F)c(-c4nc(N)cc(C)c4C(F)(F)F)c(Cl)cc23)C(C)C1 the IC50 (second compound 0.00316 µM) was 11.8 nM, the IC50 (second compound 0.01 µM) was 11.7 nM and the IC50 (second compound 0.0316 µM) was 14.7 nM. For the same molecule, the IC50 (second compound 0.1 µM) was 15.4 nM, the IC50 (second compound 0.316 µM) was 8.51 nM and the IC50 (second compound 1 µM) was 9.78 nM. The viability, T/C (second compound 0.00316 µM, first compound 0.00316 µM) was 96.1%, the viability, T/C (second compound 0.00316 µM, first compound 0.01 µM) was 53.2% and the viability, T/C [1] was 29.3%. For the same molecule, the viability, T/C [2] was 14.4%, the viability, T/C [3] was 14.2% and the viability, T/C [4] was 17.6%. It also gave a viability, T/C (second compound 0.01 µM, first compound 0.00316 µM) of 109%, a viability, T/C (second compound 0.01 µM, first compound 0.01 µM) of 54.9% and a viability, T/C [5] of 18.7%. The viability, T/C [6] was 15.8%, the viability, T/C [7] was 12.9% and the viability, T/C [8] was 16.3%. For the same molecule, the viability, T/C (second compound 0.0316 µM, first compound 0.00316 µM) was 108%, the viability, T/C (second compound 0.0316 µM, first compound 0.01 µM) was 65.1% and the viability, T/C [9] was 20.1%. It also gave a viability, T/C [10] of 13%, a viability, T/C [11] of 9.07% and a viability, T/C [12] of 16.4%. The viability, T/C (second compound 0.1 µM, first compound 0.00316 µM) was 88.9%, the viability, T/C (second compound 0.1 µM, first compound 0.01 µM) was 64% and the viability, T/C [13] was 27%. For the same molecule, the viability, T/C [14] was 14%, the viability, T/C [15] was 13.4% and the viability, T/C [16] was 14.6%. It also gave a viability, T/C (second compound 0.316 µM, first compound 0.00316 µM) of 111%, a viability, T/C (second compound 0.316 µM, first compound 0.01 µM) of 39.9% and a viability, T/C [17] of 21%. The viability, T/C [18] was 11.6%, the viability, T/C [19] was 14.9% and the viability, T/C [20] was 20.7%. The viability, T/C (second compound 1 µM, first compound 0.00316 µM) was 90.7%, the viability, T/C (second compound 1 µM, first compound 0.01 µM) was 49% and the viability, T/C [21] was 25.6%. The viability, T/C [22] was 16.8%, the viability, T/C [23] was 12.6% and the viability, T/C [24] was 17.6%.
